Each structure is given as a SMILES string. Where two headings read alike, the source gives them in different places.

One assay has as its target T1, MATE1 (Homo sapiens, UniProt Q96FL8).
T1 sequence (Q96FL8 1-570): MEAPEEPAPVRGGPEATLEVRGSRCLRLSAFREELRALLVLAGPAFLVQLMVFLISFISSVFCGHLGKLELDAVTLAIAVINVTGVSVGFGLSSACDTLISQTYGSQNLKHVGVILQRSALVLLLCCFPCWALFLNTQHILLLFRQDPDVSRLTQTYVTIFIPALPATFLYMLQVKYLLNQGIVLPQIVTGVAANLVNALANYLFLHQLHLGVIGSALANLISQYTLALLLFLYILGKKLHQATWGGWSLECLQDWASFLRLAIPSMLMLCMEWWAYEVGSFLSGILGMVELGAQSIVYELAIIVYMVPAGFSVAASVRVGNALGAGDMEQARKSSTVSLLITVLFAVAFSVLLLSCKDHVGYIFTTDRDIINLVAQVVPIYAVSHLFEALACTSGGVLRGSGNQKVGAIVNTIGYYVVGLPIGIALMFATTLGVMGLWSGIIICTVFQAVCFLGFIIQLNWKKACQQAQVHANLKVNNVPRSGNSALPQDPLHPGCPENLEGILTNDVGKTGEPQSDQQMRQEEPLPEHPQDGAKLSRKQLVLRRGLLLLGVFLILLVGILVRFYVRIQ
The assay can be described thus: Uptake ratio in MATE1-overexpressing HEK293 cells vs empty vector (2.5 μM, 1 min, HPLC-MS/MS). Also on record: key to MATE1 substrate*: 1 = substrate; 0 = no substrate. The format is cell-based.

In a further assay the target is MATE2K (Homo sapiens, UniProt Q86VL8). The assay can be described thus: Uptake ratio in MATE2K-overexpressing HEK293 cells vs empty vector (2.5 μM, 1 min, HPLC-MS/MS). Also on record: key to MATE2 substrate*: 1 = substrate; 0 = no substrate. It counts as cell-based.
The mark [1] stands for this setting: fold uptake over empty vector, 2.5 μM, 1 min.
Where [2] appears, read: uptake ratio MATE1-overexpressing vs empty-vector HEK293 cells, 2.5 μM, 1 min, mean.
[3] abbreviates: uptake ratio MATE2K-overexpressing vs empty-vector HEK293 cells, 2.5 μM, 1 min, mean.

Sequence of MATE2K (Q86VL8 1-566 isoform Q86VL8-3): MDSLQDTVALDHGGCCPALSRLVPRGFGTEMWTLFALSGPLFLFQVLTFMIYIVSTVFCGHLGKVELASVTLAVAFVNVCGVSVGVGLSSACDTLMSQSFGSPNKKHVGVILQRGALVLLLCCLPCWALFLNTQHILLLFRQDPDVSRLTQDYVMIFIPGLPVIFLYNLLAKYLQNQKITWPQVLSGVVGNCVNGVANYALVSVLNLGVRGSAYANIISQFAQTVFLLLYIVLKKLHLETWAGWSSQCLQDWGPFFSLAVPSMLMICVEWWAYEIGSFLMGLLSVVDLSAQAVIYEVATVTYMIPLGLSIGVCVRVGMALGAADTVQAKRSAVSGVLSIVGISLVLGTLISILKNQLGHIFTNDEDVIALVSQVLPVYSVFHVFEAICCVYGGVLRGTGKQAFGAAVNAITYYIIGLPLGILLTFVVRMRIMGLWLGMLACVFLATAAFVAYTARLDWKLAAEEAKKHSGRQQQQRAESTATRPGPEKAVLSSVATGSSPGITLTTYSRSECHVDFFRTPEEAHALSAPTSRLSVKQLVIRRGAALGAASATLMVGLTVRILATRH

For the molecule `C1CCN2C[C@@H]3C[C@@H](CN4CCCC[C@@H]34)[C@H]2C1` [Sparteine (+), Sparteine], at MATE1, the MATE1 is reported as 1.62 and the MATE1 ratio was determined as 1.62. On MATE2K, the MATE2 worked out at 1.31 and the MATE2K ratio amounted to 1.31.

In the case of `C1CCN2C[C@H]3C[C@H](CN4CCCC[C@@H]34)[C@H]2C1` [Sparteine (-), Sparteine], on MATE1, the MATE1 is reported as 2.12, the MATE1 ratio was found to be 2.12 and the “MATE1 ratio in this study” value is listed as 2.12. Also, on MATE2K, the MATE2 is reported as 1.66, the MATE2K ratio was 1.66 and the “MATE2K ratio in this study” value stood at 1.66.

Consider `NCCCCNCCCN` [Spermidine], for which the MATE1 ratio on MATE1 (setting [1]) is recorded as 0.63. The MATE1 at MATE1 (setting [2]) is 0.63. The MATE2K ratio at MATE2K (setting [1]) turned out to be 0.55. Besides, the MATE2 at MATE2K (setting [3]) came to 0.55.

On to `NCCCNCCCCNCCCN` [Spermine], for which the MATE1 ratio at MATE1 (setting [1]) turned out to be 1.13. The MATE1 at MATE1 (setting [2]) is 1.13. On MATE2K (setting [1]), the MATE2K ratio is 1.25. Besides, the MATE2 at MATE2K (setting [3]) came out at 1.25.

Regarding `C[N+]1(C)CCC[C@H]1C(=O)[O-]` [Stachydrine], on MATE1 (setting [1]), the MATE1 ratio worked out at 0.83. At MATE1 (setting [2]), the MATE1 worked out at 0.83. For the same molecule, the MATE2K ratio on MATE2K (setting [1]) is 1.31. For the same molecule, on MATE2K (setting [3]), the MATE2 stood at 1.31.

As for `C[N+](C)(C)C[C@@H](CC(=O)[O-])OC(=O)CCC(=O)O` [Succinylcarnitine], at MATE1 (setting [1]), the MATE1 ratio came out at 0.54. The MATE1 at MATE1 (setting [2]) worked out at 0.54. In addition, at MATE2K (setting [1]), the MATE2K ratio worked out at 1.38. On MATE2K (setting [3]), the MATE2 stood at 1.38.

Consider `CNCC(O)c1ccc(O)cc1.CNCC(O)c1ccc(O)cc1.O=C(O)C(O)C(O)C(=O)O` (centres unmarked) [Synephrine], for which the MATE1 at MATE1 turned out to be 6.5. Also, the MATE2 at MATE2K is given as 1.04.

For the molecule `Cn1nnc2c(C(N)=O)ncn2c1=O` [Temozolomide], the MATE1 at MATE1 (setting [2]) was 1.03. Also, the MATE2 on MATE2K (setting [3]) is given as 1.1.

As for `CC(C)(C)NCC(O)c1cc(O)cc(O)c1` (centres unmarked) [Terbutaline], the MATE1 at MATE1 (setting [2]) came out at 6.74. Moreover, at MATE2K (setting [3]), the MATE2 is given as 7.04.

In the case of `CC(C)(C)c1ccc(C(O)CCCN2CCC(C(O)(c3ccccc3)c3ccccc3)CC2)cc1` (centres unmarked) [Terfenadine], the MATE1 on MATE1 (setting [2]) was determined as 1.07. For the same molecule, the MATE2 at MATE2K (setting [3]) came out at 0.93.

With `CCCCNc1ccc(C(=O)OCCN(C)C)cc1` [Tetracaine], the MATE1 on MATE1 (setting [2]) came to 1.12. In addition, the MATE2 on MATE2K (setting [3]) was 1.3.

`CC[N+](CC)(CC)CC` [Tetraethyl ammonium (TEA), Tetraethyl ammonium]: the “MATE1 ratio in this study” value on MATE1 is 25.44. Also, the “MATE2K ratio in this study” value at MATE2K is given as 6.73.

As to `CC[N+](CC)(CC)CC` [Tetraethylammonium], the MATE1 at MATE1 was 25.44. Also, on MATE2K, the MATE2 came out at 6.73.

On to `O=C1CCC(N2C(=O)c3ccccc3C2=O)C(=O)N1` (centres unmarked) [Thalidomide], for which the MATE1 at MATE1 (setting [2]) was 0.85. Besides, the MATE2 on MATE2K (setting [3]) was determined as 2.02.

Regarding `Cc1ncc(C[n+]2csc(CCOP(=O)(O)O)c2C)c(N)n1` [Thiamine monophosphate], the MATE1 at MATE1 (setting [2]) was 1.05. In addition, on MATE2K (setting [3]), the MATE2 stood at 0.89.

For the molecule `C/C=C(\C)C(=O)OC(CC(=O)[O-])C[N+](C)(C)C` (centres unmarked) [Tiglylcarnitine], the MATE1 on MATE1 (setting [2]) is on record as 0.96. Further, on MATE2K (setting [3]), the MATE2 is recorded as 0.76.

Consider `C[C@@H]1CCN(C(=O)CC#N)C[C@@H]1N(C)c1ncnc2[nH]ccc12` [Tofacitinib], for which, at MATE1 (Table S1, 2.5 μM, 1 min), the “MATE1 ratio in this study” value stood at 1.36. In addition, the MATE1 at MATE1 (setting [2]) worked out at 1.36. Further, the “MATE2K ratio in this study” value at MATE2K (Table S1, 2.5 μM, 1 min) is recorded as 1.41. For the same molecule, the MATE2 on MATE2K (setting [3]) is on record as 1.41.

With `COc1cccc(C2(O)CCCCC2CN(C)C)c1` (centres unmarked) [Tramadol], the MATE1 at MATE1 was 1.13. Also, the MATE2 on MATE2K is given as 1.44.

As for `CC(CN(C)C)CN1c2ccccc2CCc2ccccc21` (centres unmarked) [Trimipramine], the MATE1 on MATE1 (setting [2]) came out at 1.19. In addition, the MATE2 on MATE2K (setting [3]) is on record as 1.2.

Turning to `CN1[C@@H]2CC[C@H]1C[C@@H](OC(=O)c1c[nH]c3ccccc13)C2` [Tropisetron], the MATE1 at MATE1 (setting [2]) was 1.22. Further, at MATE2K (setting [3]), the MATE2 came out at 1.15.

Take `N[C@@H](Cc1c[nH]c2ccccc12)C(=O)O` [Tryptophan]: at MATE1, the MATE1 turned out to be 0.82. Also, the MATE2 at MATE2K amounted to 1.07.

Regarding `CC(C)(C)NCC(O)c1ccccc1Cl` (centres unmarked) [Tulobuterol], the MATE1 at MATE1 (setting [2]) worked out at 1.31. Further, at MATE2K (setting [3]), the MATE2 came to 1.74.

As for `OC(c1ccccc1)(c1ccccc1)C12CC[N+](CCOCc3ccccc3)(CC1)CC2` [Umeclidinium], the MATE1 on MATE1 (setting [2]) was 4.54. Moreover, on MATE2K (setting [3]), the MATE2 is 1.67.

Turning to `CC[C@@H]1CN(C(=O)NCC(F)(F)F)C[C@@H]1c1cnc2cnc3[nH]ccc3n12` [Upadacitinib], the MATE1 on MATE1 (setting [2]) is 1.51. Further, the MATE2 at MATE2K (setting [3]) came out at 1.27.

With `COc1ccccc1N1CCN(CCCNc2cc(=O)n(C)c(=O)n2C)CC1` [Urapidil], on MATE1 (setting [2]), the MATE1 is given as 1.19. The MATE2 on MATE2K (setting [3]) is reported as 1.17.

`c1cnc2cc3c(cc2n1)[C@@H]1CNC[C@H]3C1` [Varenicline]: the “MATE1 ratio in this study” value on MATE1 (Table S1, 2.5 μM, 1 min) was determined as 1.20. Besides, the MATE1 on MATE1 (setting [2]) came to 1.2. Besides, on MATE2K (Table S1, 2.5 μM, 1 min), the “MATE2K ratio in this study” value is on record as 1.30. Further, the MATE2 on MATE2K (setting [3]) is on record as 1.3.

With `CC(=O)O[C@H]1C[C@@H]2CC[C@@H]3[C@H](CC[C@@]4(C)[C@H]3C[C@H]([N+]3(C)CCCCC3)[C@@H]4OC(C)=O)[C@@]2(C)C[C@@H]1N1CCCCC1` [Vecuronium], the MATE1 at MATE1 is 8.32. Besides, the MATE2 at MATE2K stood at 4.72.

As for `COc1ccc([C@H](CN(C)C)C2(O)CCCCC2)cc1` [Venlafaxine (R)], the MATE1 at MATE1 was 1.14. Also, at MATE2K, the MATE2 worked out at 1.36.

On to `COc1ccc([C@@H](CN(C)C)C2(O)CCCCC2)cc1` [Venlafaxine (S)], for which, at MATE1, the MATE1 was found to be 1.22. Further, the MATE2 on MATE2K amounted to 1.44.

`COc1ccc(C(CN(C)C)C2(O)CCCCC2)cc1` (centres unmarked) [Venlafaxine]: at MATE1, the MATE1 is given as 1.22. Also, the MATE2 at MATE2K was determined as 1.3.

For `C=CCN1CCCC1CNC(=O)c1cc(S(N)(=O)=O)cc(OC)c1OC` (centres unmarked) [Veralipride], the MATE1 at MATE1 (setting [2]) is recorded as 6.39. Also, the MATE2 on MATE2K (setting [3]) was 4.21.

Consider `CCOc1ccccc1OCC1CNCCO1` (centres unmarked) [Viloxazine], for which the MATE1 on MATE1 was 1.12. Moreover, at MATE2K, the MATE2 is listed as 1.38.

On to `O=C(NCCNCC(O)COc1ccc(O)cc1)N1CCOCC1` (centres unmarked) [Xamoterol], for which the MATE1 at MATE1 (setting [2]) was found to be 7.62. Besides, at MATE2K (setting [3]), the MATE2 stood at 6.13.

Consider `COC(=O)[C@@H]1[C@H]2C[C@H]3c4[nH]c5ccccc5c4CCN3C[C@@H]2CC[C@@H]1O` [Yohimbin], for which, at MATE1 (setting [2]), the MATE1 is given as 1.11. In addition, the MATE2 at MATE2K (setting [3]) is recorded as 1.35.

Take `O=c1ncccn1[C@@H]1O[C@H](CO)[C@@H](O)[C@H]1O` [Zebularine]: at MATE1 (Table S4), the “MATE1 substrate*” value came to 0. The MATE1 at MATE1 (setting [2]) is 1.12. The “MATE2 substrate*” value at MATE2K (Table S4) is 0. For the same molecule, the MATE2 at MATE2K (setting [3]) is given as 0.9.

Consider `NC(N)=NCc1cccc(I)c1` [m-Iodobenzylguanidin], for which the MATE1 ratio on MATE1 (setting [1]) is 3.53. Also, the MATE2K ratio on MATE2K (setting [1]) came out at 2.28.

For `NCCc1cccc(O)c1` [m-Tyramine], the MATE1 ratio on MATE1 (setting [1]) was determined as 8.90. Besides, the MATE2K ratio on MATE2K (setting [1]) is recorded as 1.31.

Regarding `Nc1ccc(N)cc1` [p-Phenylenediamine], on MATE1, the MATE1 ratio turned out to be 1.04. Moreover, the MATE2K ratio at MATE2K turned out to be 1.07.

In the case of `C[N+]1(C)[C@@H]2C[C@@H](OC(=O)C(O)(c3cccs3)c3cccs3)C[C@H]1[C@@H]1O[C@@H]12` [tiotropium], the MATE1 at MATE1 is reported as 27.4. Further, on MATE2K, the MATE2 came out at 1.94.

These data come from paper PMC12207590, “Substrate Specificity of the Organic Cation Transporters MATE1 and MATE2K and Functional Overlap with OCT1 and OCT2” (Journal of Medicinal Chemistry, 2025).
